Test results reported in paper PMC11350758, “Development of Xanthoangelol-Derived Compounds with Membrane-Disrupting Effects against Gram-Positive Bacteria” (Antibiotics, 2024).
In brackets after ≈: the same amount, converted by molar mass.

What was measured:
[1] = system: red blood cells; assay: Hemolysis assay; assay type: cell-based, Sheep; details: concentration required to lyse 50% of red blood cells; 37 °C, 1 h
Description: (§1) All target derivatives were assessed for their in vitro antibacterial activities using a broth microdilution assay to test their minimum inhibitory concentrations (MICs) against six Gram-positive strains (S. aureus ATCC31007, S. aureus ATCC25923, S. aureus ATCC43300, E. faecalis ATCC29212, B. subtilis ATCC9372, and S. epidermidis ATCC12228) and four Gram-negative strains (A. baumannii ATCC19606, K. pneumonia ATCC10031, E. coli ATCC25922, and P. aeruginosa ATCC27853). These compounds were also evaluated for their hemolytic activities and membrane selectivity by determining their HC50 (the concentration required to lyse 50% of red blood cells) and SI (HC50/MICs) values, respectively, and vancomycin was used as the positive drug.
To further detect the hemolytic toxicity and therapeutic potential of these derivatives, we proceeded to examine the hemolytic activities and membrane selectivity of these derivatives. The HC50 value was defined as the concentration needed for a compound to lyse 50% of red blood cells, and it is often used to evaluate the hemolytic toxicity to eukaryotic cells. […] The selectivity index (SI) was calculated by HC50/MICs of S. aureus ATCC43300 and was used to assess the potency and safety of the compounds. […] Thus, compound 9h was selected as a representative molecule for the in-depth in vitro and in vivo studies.
Sheep blood was used to isolate red blood cells (RBCs), which were then resuspended in 1× PBS (5%). The compounds were dissolved in PBS to give an initial concentration of 5.12 mg/mL, compound solution (100 μL) was added to the first well of a 96-well plate, two-fold serial dilutions of compounds were prepared in 96-well plates, and then 150 μL of 5% RBC suspension was added to each well. This was followed by incubation at 37 °C for 1 h. After incubation, the plate was centrifuged (3500 rpm, 5 min), and 100 μL of supernatant solution from each well was carefully pipetted into a new plate. The absorbance values were measured at 540 nm. Erythrocyte hemolysis rate = (Absorbancecompound – Absorbance negative control)/(Absorbance1% Triton X-100 − Absorbance negative control) × 100%. All biological experiments were repeated three times.

[2] = system: Staphylococcus epidermidis ATCC12228, erythromycin-susceptible strain; assay: MIC, broth microdilution; assay type: cell-based; details: Staphylococcus epidermidis ATCC12228; read-out: MIC S. e. 12228
Description: as §1
(§2) MICs of the derivatives were determined by the micro broth dilution method according to the American Clinical and Laboratory Standards Institute (CLSI) standards. Briefly, 2-fold serial dilutions of target compounds were prepared in 96-well plates containing TSB broth. An equal volume of bacterial suspension (10^6 CFU/mL) was then pipetted into each well, and the mixture was incubated at 37 °C for 24 h. […] All biological experiments were repeated three times.

[3] = system: Escherichia coli ATCC25922, penicillin-susceptible strain; assay: MIC, broth microdilution; assay type: cell-based; details: Escherichia coli ATCC25922; read-out: MIC E. c. 25922
Description: as §1, §2

[4] = system: Bacillus subtilis ATCC9372, penicillin-susceptible strain; assay: MIC, broth microdilution; assay type: cell-based; details: Bacillus subtilis ATCC9372; read-out: MIC B. s. 9372
Description: as §1, §2

[5] = system: Klebsiella pneumonia ATCC10031; assay: MIC, broth microdilution; assay type: cell-based; details: Klebsiella pneumoniae; Klebsiella pneumonia ATCC10031; read-out: MIC K. p. 10031
Description: as §1, §2

[6] = system: Acinetobacter baumannii ATCC19606; assay: MIC, broth microdilution; assay type: cell-based; details: Acinetobacter baumannii ATCC19606; read-out: MIC A. b. 19606
Description: as §1, §2

[7] = system: Enterococcus faecalis ATCC29212, vancomycin-susceptible strain; assay: MIC, broth microdilution; assay type: cell-based; details: Enterococcus faecalis ATCC29212; read-out: MIC E. f. 29212
Description: as §1, §2

[8] = system: Pseudomonas aeruginosa ATCC27853, penicillin-susceptible strain; assay: MIC, broth microdilution; assay type: cell-based; details: Pseudomonas aeruginosa ATCC27853; read-out: MIC P. a. 27853
Description: as §1, §2

[9] = system: Staphylococcus aureus ATCC25923, erythromycin-susceptible strain; assay: MIC, broth microdilution; assay type: cell-based; details: Staphylococcus aureus ATCC25923; read-out: MIC S. a. 25923
Description: as §1, §2

[10] = system: Staphylococcus aureus ATCC31007, penicillin-resistant strain; assay: MIC, broth microdilution; assay type: cell-based; details: Staphylococcus aureus ATCC31007; read-out: MIC S. a. 31007
Description: as §1, §2

[11] = system: S. aureus; assay: MIC, summary over the S. aureus strains tested; assay type: cell-based; details: Staphylococcus aureus; over the three S. aureus strains tested; read-out: MICs against S. aureus
Description: as §1, §2

[12] = system: Enterococcus faecium ATCC51559, vancomycin-resistant strain; assay: MIC, broth microdilution; assay type: cell-based; details: Enterococcus faecium ATCC51559, vancomycin-resistant; read-out: MIC E. f. 51559
Description: as §2

[13] = system: Enterococcus faecalis ATCC51299, vancomycin-resistant strain; assay: MIC, broth microdilution; assay type: cell-based; details: Enterococcus faecalis ATCC51299, vancomycin-resistant; read-out: MIC E. f. 51299
Description: as §2

[14] = system: Staphylococcus aureus ATCC43300, methicillin-resistant strain; assay: microbe, parasite or virus in culture; assay type: cell-based; details: ATCC 43300 / MRSA; Staphylococcus aureus ATCC43300 (MRSA); read-out: MIC S. a 43300
Description: as §1, §2

**Q.** With `CC(=O)c1ccc2c(c1OCCCN(C)CC(C)(C)CN(C)C)C=CC(C)(CCC=C(C)C)O2` (stereo not shown) [Compound 5g, 1-(5-(3-((3-(Dimethylamino)-2,2-dimethylpropyl)(methyl)amino)propoxy)-2-methyl-2-(4-methylpent-3-en-1-yl)-2H-chromen-6-yl)ethan-1-one] as the compound, how does the HC50 [1] read?
**A.** 183.1 µg/mL

**Q.** And the MIC [2]?
**A.** 4 µg/mL (≈ 8.5 µM)

**Q.** What about the MIC [3] of the same compound?
**A.** 16 µg/mL (≈ 34 µM)

**Q.** And the MIC [4]?
**A.** 8 µg/mL (≈ 17 µM)

**Q.** And the MIC [5]?
**A.** 4 µg/mL (≈ 8.5 µM)

**Q.** And the MIC [6]?
**A.** 8 µg/mL (≈ 17 µM)

**Q.** What about the MIC [7] of the same compound?
**A.** 8 µg/mL (≈ 17 µM)

**Q.** What about the MIC [8] of the same compound?
**A.** 128 µg/mL (≈ 272 µM)

**Q.** What about the MIC [9] of the same compound?
**A.** 8 µg/mL (≈ 17 µM)

**Q.** And the MIC [10]?
**A.** 8 µg/mL (≈ 17 µM)

**Q.** And the MIC [11]?
**A.** 8 µg/mL (≈ 17 µM)

**Q.** And the MIC [12]?
**A.** 16 µg/mL (≈ 34 µM)

**Q.** What about the MIC [13] of the same compound?
**A.** 32 µg/mL (≈ 68 µM)

**Q.** What about the MIC [14] of the same compound?
**A.** 8 µg/mL (≈ 17 µM)

**Q.** How did the HC50 [1] turn out when `CC(=O)c1ccc2c(c1OCCCN1CC(C)OC(C)C1)C=CC(C)(CCC=C(C)C)O2` (stereo not shown) [Compound 5d, 1-(5-(3-(2,6-Dimethylmorpholino)propoxy)-2-methyl-2-(4-methylpent-3-en-1-yl)-2H-chromen-6-yl)ethan-1-one] was run?
**A.** 746.5 µg/mL

**Q.** What about the MIC [2] of the same compound?
**A.** > 128 µg/mL

**Q.** What about the MIC [3] of the same compound?
**A.** > 128 µg/mL

**Q.** What about the MIC [4] of the same compound?
**A.** > 128 µg/mL

**Q.** What about the MIC [5] of the same compound?
**A.** 128 µg/mL (≈ 290 µM)

**Q.** And the MIC [6]?
**A.** 128 µg/mL (≈ 290 µM)

**Q.** What about the MIC [7] of the same compound?
**A.** > 128 µg/mL

**Q.** And the MIC [8]?
**A.** > 128 µg/mL

**Q.** And the MIC [9]?
**A.** > 128 µg/mL

**Q.** And the MIC [10]?
**A.** > 128 µg/mL

**Q.** And the MIC [12]?
**A.** > 128 µg/mL

**Q.** What about the MIC [13] of the same compound?
**A.** > 128 µg/mL

**Q.** And the MIC [14]?
**A.** > 128 µg/mL

**Q.** Which HC50 [1] does the source give for `CC(=O)c1ccc2c(c1OCCCNCCN(C)C)C=CC(C)(CCC=C(C)C)O2` (stereo not shown) [Compound 5f, 1-(5-(3-((2-(Dimethylamino)ethyl)amino)propoxy)-2-methyl-2-(4-methylpent-3-en-1-yl)-2H-chromen-6-yl)ethan-1-one] here?
**A.** 127.7 µg/mL

**Q.** And the MIC [2]?
**A.** 8 µg/mL (≈ 19.3 µM)

**Q.** What about the MIC [3] of the same compound?
**A.** 8 µg/mL (≈ 19.3 µM)

**Q.** And the MIC [4]?
**A.** 8 µg/mL (≈ 19.3 µM)

**Q.** And the MIC [5]?
**A.** 8 µg/mL (≈ 19.3 µM)

**Q.** What about the MIC [6] of the same compound?
**A.** 8 µg/mL (≈ 19.3 µM)

**Q.** And the MIC [7]?
**A.** 8 µg/mL (≈ 19.3 µM)

**Q.** What about the MIC [8] of the same compound?
**A.** 32 µg/mL (≈ 77.2 µM)

**Q.** And the MIC [9]?
**A.** 16 µg/mL (≈ 38.6 µM)

**Q.** And the MIC [10]?
**A.** 16 µg/mL (≈ 38.6 µM)

**Q.** And the MIC [12]?
**A.** 32 µg/mL (≈ 77.2 µM)

**Q.** And the MIC [13]?
**A.** 32 µg/mL (≈ 77.2 µM)

**Q.** What about the MIC [14] of the same compound?
**A.** 8 µg/mL (≈ 19.3 µM)

**Q.** With `CC[N+](CC)(CC)CCCOc1c(C(C)=O)ccc2c1C=CC(C)(CCC=C(C)C)O2` (stereo not shown) [Compound 5a, 3-((6-Acetyl-2-methyl-2-(4-methylpent-3-en-1-yl)-2H-chromen-5-yl)oxy)-N,N,N-triethylpropan-1-aminium] as the compound, how does the HC50 [1] read?
**A.** 571.5 µg/mL

**Q.** And the MIC [2]?
**A.** 64 µg/mL

**Q.** What about the MIC [3] of the same compound?
**A.** > 128 µg/mL

**Q.** What about the MIC [4] of the same compound?
**A.** 64 µg/mL

**Q.** What about the MIC [5] of the same compound?
**A.** 128 µg/mL

**Q.** And the MIC [6]?
**A.** > 128 µg/mL

**Q.** What about the MIC [7] of the same compound?
**A.** 64 µg/mL

**Q.** And the MIC [8]?
**A.** > 128 µg/mL

**Q.** And the MIC [9]?
**A.** 8 µg/mL

**Q.** What about the MIC [10] of the same compound?
**A.** 128 µg/mL

**Q.** And the MIC [11]?
**A.** 8 to 128 µg/mL

**Q.** And the MIC [12]?
**A.** 16 µg/mL

**Q.** What about the MIC [13] of the same compound?
**A.** 16 µg/mL

**Q.** What about the MIC [14] of the same compound?
**A.** 64 µg/mL

**Q.** How did the HC50 [1] turn out when `CC(=O)c1ccc2c(c1OCCCN1CCN(C(C)=O)CC1)C=CC(C)(CCC=C(C)C)O2` (stereo not shown) [Compound 5e, 1-(4-(3-((6-Acetyl-2-methyl-2-(4-methylpent-3-en-1-yl)-2H-chromen-5-yl)oxy)propyl)piperazin-1-yl)ethan-1-one] was run?
**A.** 62.3 µg/mL

**Q.** What about the MIC [2] of the same compound?
**A.** 64 µg/mL (≈ 141 µM)

**Q.** And the MIC [3]?
**A.** > 128 µg/mL

**Q.** What about the MIC [4] of the same compound?
**A.** 64 µg/mL (≈ 141 µM)

**Q.** What about the MIC [5] of the same compound?
**A.** > 128 µg/mL

**Q.** What about the MIC [6] of the same compound?
**A.** 128 µg/mL (≈ 282 µM)

**Q.** What about the MIC [7] of the same compound?
**A.** 32 µg/mL (≈ 70.4 µM)

**Q.** What about the MIC [8] of the same compound?
**A.** > 128 µg/mL

**Q.** What about the MIC [9] of the same compound?
**A.** 128 µg/mL (≈ 282 µM)

**Q.** And the MIC [10]?
**A.** 128 µg/mL (≈ 282 µM)

**Q.** What about the MIC [12] of the same compound?
**A.** 128 µg/mL (≈ 282 µM)

**Q.** What about the MIC [13] of the same compound?
**A.** 128 µg/mL (≈ 282 µM)

**Q.** What about the MIC [14] of the same compound?
**A.** 128 µg/mL (≈ 282 µM)
